Test in all cases: biochemical
One test deals with T1, α-1b adrenoreceptor (Mesocricetus auratus, UniProt P18841).
T1 sequence (P18841 1-515): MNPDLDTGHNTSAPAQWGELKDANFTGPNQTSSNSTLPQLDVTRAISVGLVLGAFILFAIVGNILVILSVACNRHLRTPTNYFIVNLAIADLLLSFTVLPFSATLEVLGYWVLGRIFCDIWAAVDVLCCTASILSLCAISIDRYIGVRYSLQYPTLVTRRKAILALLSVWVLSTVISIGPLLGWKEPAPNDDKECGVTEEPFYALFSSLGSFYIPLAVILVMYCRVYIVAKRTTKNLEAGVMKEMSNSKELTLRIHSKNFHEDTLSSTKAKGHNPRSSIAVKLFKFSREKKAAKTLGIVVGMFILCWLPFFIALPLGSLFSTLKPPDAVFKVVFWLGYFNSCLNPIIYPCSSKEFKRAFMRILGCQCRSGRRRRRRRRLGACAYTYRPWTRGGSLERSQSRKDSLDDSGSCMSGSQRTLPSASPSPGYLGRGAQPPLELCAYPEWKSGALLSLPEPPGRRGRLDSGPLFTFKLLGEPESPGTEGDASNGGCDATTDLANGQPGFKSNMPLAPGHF
Type of test: binding, hamster. The settings on record: [3H]-prazosin radioligand; cloned receptor in LTK cell membranes; read-out: Radioligand Binding (Ki, nM) 1b (Hamster). The essentials:
(§1)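 LTK mouse fibroblasts stably transfected with α-1a, α-1b or α-1d cDNA → roller-bottle culture 5 days at 37 °C → membranes in 50 mM Tris-HCl, stored at -70 °C → radioligand binding → scintillation counting.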

For the next test, the target named is T2, α-1a adrenoreceptor (Bos taurus, UniProt P18130).
T2 sequence (P18130 1-466): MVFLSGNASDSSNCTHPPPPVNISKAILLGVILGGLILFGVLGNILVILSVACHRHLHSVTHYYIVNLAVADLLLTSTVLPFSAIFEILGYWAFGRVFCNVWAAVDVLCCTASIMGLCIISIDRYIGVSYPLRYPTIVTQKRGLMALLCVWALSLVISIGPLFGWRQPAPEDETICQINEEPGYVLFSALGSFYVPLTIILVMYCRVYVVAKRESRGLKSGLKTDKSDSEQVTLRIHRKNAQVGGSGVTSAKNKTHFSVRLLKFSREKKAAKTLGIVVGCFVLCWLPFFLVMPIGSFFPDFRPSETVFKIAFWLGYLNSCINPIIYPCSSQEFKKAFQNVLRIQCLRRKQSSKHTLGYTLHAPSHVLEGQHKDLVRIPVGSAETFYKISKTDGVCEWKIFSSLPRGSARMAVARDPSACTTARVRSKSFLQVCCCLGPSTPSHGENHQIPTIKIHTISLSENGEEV
Type of test: binding, bovine. The settings on record: [3H]-prazosin radioligand; cloned receptor in LTK cell membranes; read-out: Radioligand Binding (Ki, nM) 1a (Bovine). The essentials: as §1

The target of test [1] is T3, α-1A adrenoreceptor (rat submaxillary gland) (Rattus norvegicus, UniProt P43140).
T3 sequence (P43140 1-466): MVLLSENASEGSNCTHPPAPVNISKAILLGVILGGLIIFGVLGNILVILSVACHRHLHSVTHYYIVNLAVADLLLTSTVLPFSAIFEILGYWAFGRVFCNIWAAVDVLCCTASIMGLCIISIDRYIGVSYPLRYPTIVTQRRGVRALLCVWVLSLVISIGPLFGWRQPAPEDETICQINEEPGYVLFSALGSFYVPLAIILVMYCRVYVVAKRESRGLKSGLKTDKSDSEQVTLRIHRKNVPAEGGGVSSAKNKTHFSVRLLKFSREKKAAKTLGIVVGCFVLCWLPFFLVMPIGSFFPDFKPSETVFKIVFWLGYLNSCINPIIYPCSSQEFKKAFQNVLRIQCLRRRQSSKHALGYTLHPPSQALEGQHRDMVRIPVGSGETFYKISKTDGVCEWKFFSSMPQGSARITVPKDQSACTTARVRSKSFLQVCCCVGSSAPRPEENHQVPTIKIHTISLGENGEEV
Type of test: binding. The settings on record: [3H]-prazosin radioligand; rat submaxillary gland membranes; read-out: Radioligand Binding (Ki, nM) 1A (Rat). The essentials:
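Radioligand binding to α-1A sites in membrane homogenates of rat submaxillary gland, run after Greengrass and Bremner. Bound radioactivity counted by liquid scintillation.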

The text below walks through data of patent publication EP0942911B1, “BENZOPYRANOPYRROLE AND BENZOPYRANOPYRIDINE ALPHA-1 ADRENERGIC COMPOUNDS” (Abbott Laboratories, priority 1996, dated 1998).

Structures can show the parent of a compound that is named as a salt.

On to `COc1cccc2c1[C@@H]1CN(CCCCn3c(=O)[nH]c4c(sc5c(Cl)nccc54)c3=O)C[C@@H]1CO2` [Example 53, 3-[4-((3aR,9bR)-cis-9-Methoxy-1,2,3,3a,4,9b-hexahydro-[1]-benzopyrano[3,4-c]pyrrol-2-yl)butyl]-6-chloro-pyrido[4',3':4,5]thieno[3,2-d]pyrimidine-2,4(1H,3H)-dione], for which the values for the inhibition constant Ki (at α-1b adrenoreceptor; on α-1a adrenoreceptor; in test [1]) were 9.42 nM, 0.037 nM and 0.872 nM, respectively.
The like results for `COc1cccc2c1[C@@H]1CN(CCCCn3c(=O)[nH]c4c(sc5c(Cl)nccc54)c3=O)C[C@H]1CO2` [Example 54, 3-[4-((3aS,9bR)-trans-9-Methoxy-1,2,3,3a,4,9b-hexahydro-[1]-benzopyrano[3,4-c]pyrrol-2-yl)butyl]-6-chloro-pyrido[4',3':4,5]thieno[3,2-d]pyrimidine-2,4(1H,3H)-dione] were, in that order, 1 nM, 0.187 nM and 0.077 nM.
For `COc1cccc2c1[C@@H]1CCN(CCCCn3c(=O)[nH]c4c(sc5cccnc54)c3=O)C[C@H]1CO2` [Example 95, 3-[4-((4aS,10bR)-trans-10-Methoxy-1,3,4,4a,5,10b-hexahydro-2H-[1]-benzopyrano[3,4-c]pyrido-3-yl)butyl]-pyrido[2',3':4,5]thieno[3,2-d]pyrimidine-2.4(1H,3H)-dione dihydrochloride], the values for the Ki (on α-1b adrenoreceptor; at α-1a adrenoreceptor; in test [1]) were 21.6 nM, 1.8 nM and 8.83 nM, respectively.
Regarding `COc1cccc2c1[C@@H]1CCN(CCCCn3c(=O)[nH]c4c(sc5ncc(Cl)nc54)c3=O)C[C@H]1CO2` [Example 97, 3-[4-((4aS,10bR)-trans-10-Methoxy-1,3,4,4a,5,10b-hexahydro-2H-[1]-benzopyrano[3,4-c]pyrido-3-yl)butyl]-8-chloro-pyrazino[2',3':4,5]thieno[3,2-d]pyrimidine-2,4(1H,3H)-dione dihydrochloride], the Ki (as a rule, a measure of affinity in units of concentration, obtained from inhibition or displacement) was determined as 4.7 nM on α-1b adrenoreceptor, 0.097 nM on α-1a adrenoreceptor and 0.892 nM in test [1].
